Laboratory results reported in US20040076974A1, “Liver necrosis predictive genes” (priority 2002, published 2004).
Where “and” joins values, the source holds several entries; their conditions need not be identical. Equal values may be shown once. Read-outs that look alike come from different tables or passages of the source.

Columns and labels:
Sprague Dawley rats = conditions: rat; for Score (histopathology liver necrosis severity score): Sprague Dawley, 72 h; for Score (histopathology liver necrosis severity score) / Liver Necrosis: ip
Method in brief: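 Toxicity calls (necrosis present or absent at 72 h) and histopathology scores were correlated with tissue gene expression from Crl:CD Sprague Dawley rats. Animals, usually 3 treated with compound by i.p. route and 3 given vehicle, were killed at 6, 24 or 72 h and tissues frozen immediately in liquid nitrogen.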

[1] = system: toxicologically relevant rat genes (rat CT array)
[2] = 24 h, dose 1000, listed as APAP

CC(=O)Nc1ccc(O)cc1 [acetaminophen]
Score (histopathology liver necrosis severity score) (Sprague Dawley rats; in vivo, 250 mg/kg): 1 | Score (histopathology liver necrosis severity score) (Sprague Dawley rats; in vivo, 1000 mg/kg): 2 | toxicity at the high dose (Sprague Dawley rats; in vivo): produced toxicity | Liver Necrosis (Sprague Dawley rats; in vivo, 250 mg/kg): no | Liver Necrosis (Sprague Dawley rats; in vivo, 1000 mg/kg): Yes | toxicity at the low dose (Sprague Dawley rats; low dose of Table 1, liver necrosis at 72 hours): not at the low dose | Aflatoxin B1 aldehyde reductase expression (treatment/control) ([1]; 24 h): 3.687 and 4.607 and 5.763 | 3-hydroxyisobutyrate dehydrogenase expression (treatment/control) [1, 2]: 0.8093 and 0.6875 and 0.5181 | 14-3-3 zeta expression (treatment/control) [1, 2]: 1.279 and 1.34 and 2.193 | 25-DX expression (treatment/control) [1, 2]: 1.304 and 1.667 and 1.897 | 60S ribosomal protein L6 expression (treatment/control) [1, 2]: 1.31 and 2.123 and 2.39 | Alpha 1 - inhibitor III expression (treatment/control) [1, 2]: 0.4712 and 0.4696 and 0.2941 | Alpha-2-macroglobulin expression (treatment/control) [1, 2]: 0.5487 and 0.4873 and 0.3551 | Apolipoprotein CIII expression (treatment/control) [1, 2]: 0.702 and 0.753 and 0.464 | Bax (alpha) expression (treatment/control) [1, 2]: 1.285 and 1.306 and 1.621 | Calpactin I heavy chain expression (treatment/control) [1, 2]: 1.347 and 1.282 and 1.692 | Carbamyl phosphate synthetase I expression (treatment/control) [1, 2]: 0.7736 and 0.7076 and 0.6953 | Carbonyl reductase expression (treatment/control) [1, 2]: 1.218 and 1.144 and 1.992 | Cofilin expression (treatment/control) [1, 2]: 0.9081 and 0.9679 and 1.261 | DNA polymerase beta expression (treatment/control) [1, 2]: 0.8811 and 1.223 and 1.54 | Elongation factor-1 alpha expression (treatment/control) [1, 2]: 1.174 and 1.533 and 1.746 | Endogenous retroviral sequence, 5′ and 3′ LTR expression (treatment/control) [1, 2]: 1.114 and 1.112 and 1.648 | Enolase alpha expression (treatment/control) [1, 2]: 1.382 and 2.619 and 2.308 | Epidermal growth factor expression (treatment/control) [1, 2]: 0.7557 and 0.7312 and 0.6935 | Extracellular-signal-regulated kinase 1 expression (treatment/control) [1, 2]: 0.452 and 0.4073 and 0.261 | Fas antigen expression (treatment/control) [1, 2]: 1.77 and 1.618 and 2.162 | Gadd153 expression (treatment/control) [1, 2]: 1.15 and 1.234 and 2.2302 | Glucose-regulated protein 78 expression (treatment/control) [1, 2]: 1.949 and 2.017 and 1.914 | Hepatic lipase expression (treatment/control) [1, 2]: 0.5231 and 0.4276 and 0.3047 | ID-1 expression (treatment/control) [1, 2]: 1.004 and 1.038 and 1.388 | IgE binding protein expression (treatment/control) [1, 2]: 1.117 and 1.131 and 1.528 | IkB-a expression (treatment/control) [1, 2]: 1.268 and 1.662 and 1.76 | Insulin-like growth factor binding protein 3 expression (treatment/control) [1, 2]: 0.5707 and 0.5952 and 0.4059 | Liver fatty acid binding protein expression (treatment/control) [1, 2]: 0.4243 and 0.4268 and 0.229 | MAP kinase kinase expression (treatment/control) [1, 2]: 1.017 and 1.243 and 1.361 | Macrophage inflammatory protein-1 alpha expression (treatment/control) [1, 2]: 1.158 and 1.138 and 1.685 | Matrix metalloproteinase-1 expression (treatment/control) [1, 2]: 1.41 and 1.586 and 2.447 | Melanoma-associated antigen ME491 expression (treatment/control) [1, 2]: 1.011 and 1.114 and 1.656 | Monocyte chemotactic protein receptor (CCR2) expression (treatment/control) [1, 2]: 1.194 and 1.282 and 1.728 | NADPH quinone oxidoreductase-1 (DT-diaphorase) expression (treatment/control) [1, 2]: 2.511 and 2.716 and 4.842 | Nucleoside diphosphate kinase beta isoform expression (treatment/control) [1, 2]: 1.516 | Organic anion transporter 3 expression (treatment/control) [1, 2]: 0.7554 and 0.5816 and 0.5461 | Organic cation transporter 3 expression (treatment/control) [1, 2]: 1.215 and 1.663 and 2.064 | Ornithine decarboxylase expression (treatment/control) [1, 2]: 1.918 and 2.163 and 3.092 | Phase-1 RCT 252 expression (treatment/control) [1, 2]: 0.7905 and 0.6256 | Phase-1 RCT-12 expression (treatment/control) [1, 2]: 1.884 | Phase-1 RCT-33 expression (treatment/control) [1, 2]: 0.7278 and 0.4867 | Phase-1 RCT-36 expression (treatment/control) [1, 2]: 0.9342 and 0.7084 | Phase-1 RCT-37 expression (treatment/control) [1, 2]: 1.525 and 1.704 | Phase-1 RCT-38 expression (treatment/control) [1, 2]: 0.8079 and 0.6659 and 0.4284 | Phase-1 RCT-40 expression (treatment/control) [1, 2]: 0.3766 | Phase-1 RCT-48 expression (treatment/control) [1, 2]: 0.6762 and 0.5881 | Phase-1 RCT-65 expression (treatment/control) [1, 2]: 1.498 | Phase-1 RCT-68 expression (treatment/control) [1, 2]: 2.006 | Phase-1 RCT-72 expression (treatment/control) [1, 2]: 1.676 | Phase-1 RCT-78 expression (treatment/control) [1, 2]: 0.6314 and 0.4384 | Phase-1 RCT-83 expression (treatment/control) [1, 2]: 0.6151 and 0.4373 and 0.3263 | Phase-1 RCT-88 expression (treatment/control) [1, 2]: 0.5934 and 0.6891 and 0.4014 | Phase-1 RCT-92 expression (treatment/control) [1, 2]: 0.6478 and 0.6327 and 0.3995 | Phase-1 RCT-102 expression (treatment/control) [1, 2]: 0.4854 and 0.3992 and 0.2737 | Phase-1 RCT-109 expression (treatment/control) [1, 2]: 2.054 and 2.291 | Phase-1 RCT-123 expression (treatment/control) [1, 2]: 0.983 | Phase-1 RCT-127 expression (treatment/control) [1, 2]: 0.99 and 1.472 | Phase-1 RCT-137 expression (treatment/control) [1, 2]: 0.72 and 0.8264 and 0.5868 | Phase-1 RCT-145 expression (treatment/control) [1, 2]: 1.2 and 1.522 and 2.335 | Phase-1 RCT-152 expression (treatment/control) [1, 2]: 1.202 and 1.996 and 2.355 | Phase-1 RCT-154 expression (treatment/control) [1, 2]: 2.226 | Phase-1 RCT-162 expression (treatment/control) [1, 2]: 1.476 | Phase-1 RCT-168 expression (treatment/control) [1, 2]: 0.7401 and 0.471 | Phase-1 RCT-180 expression (treatment/control) [1, 2]: 1.523 and 1.839 | Phase-1 RCT-181 expression (treatment/control) [1, 2]: 0.6749 | Phase-1 RCT-185 expression (treatment/control) [1, 2]: 0.5075 and 0.4368 and 0.3225 | Phase-1 RCT-191 expression (treatment/control) [1, 2]: 1.498 and 2.514 | Phase-1 RCT-192 expression (treatment/control) [1, 2]: 1.606 and 1.812 | Phase-1 RCT-205 expression (treatment/control) [1, 2]: 1.793 | Phase-1 RCT-213 expression (treatment/control) [1, 2]: 1.607 and 2.134 | Phase-1 RCT-214 expression (treatment/control) [1, 2]: 0.7129 and 0.7249 and 0.4326 | Phase-1 RCT-242 expression (treatment/control) [1, 2]: 1.936 | Phase-1 RCT-258 expression (treatment/control) [1, 2]: 1.198 and 1.289 and 1.628 | Phase-1 RCT-264 expression (treatment/control) [1, 2]: 0.4839 and 0.3686 | Phase-1 RCT-271 expression (treatment/control) [1, 2]: 0.5952 | Phase-1 RCT-295 expression (treatment/control) [1, 2]: 1.409 and 1.586 and 1.993 | Phase-1 RCT-296 expression (treatment/control) [1, 2]: 0.4087 and 0.2215 and 0.347 | Pyruvate kinase, muscle expression (treatment/control) [1, 2]: 1.015 and 0.9969 and 1.833 | Ref-1 expression (treatment/control) [1, 2]: 1.85 and 2.112 and 3.617 | Ribosomal protein L13A expression (treatment/control) [1, 2]: 2.348 and 2.582 | Ribosomal protein S8 expression (treatment/control) [1, 2]: 1.864 and 2.055 | Sodium/bile acid cotransporter expression (treatment/control) [1, 2]: 0.7685 and 0.5902 and 0.8858 | Superoxide dismutase Mn expression (treatment/control) [1, 2]: 1.274 and 1.178 and 1.931 | T-cell cyclophilin expression (treatment/control) [1, 2]: 0.8846 and 1.322 and 1.491 | Thymosin beta-10 expression (treatment/control) [1, 2]: 1.285 and 1.383 and 1.788 | Transthyretin expression (treatment/control) [1, 2]: 0.427 and 0.4938 and 0.34 | Ubiquitin conjugating enzyme (RAD 6 homologue) expression (treatment/control) [1, 2]: 0.9549 and 1.282 and 1.558 | Uncoupling protein 2 expression (treatment/control) [1, 2]: 1.201 and 1.111 and 1.462 | c-H-ras expression (treatment/control) [1, 2]: 1.118 and 1.069 and 0.9092 | p53 expression (treatment/control) [1, 2]: 0.8979 and 1.176 and 1.584 | {Ribosomal protein L6} expression (treatment/control) [1, 2]: 1.978 and 2.321 | Multidrug resistant protein-1 expression (treatment/control) ([1]; rat, in vivo): 1.241 and 1.202 and 1.889 | Paraoxonase 1 expression (treatment/control) ([1]; rat, in vivo): 0.5292 and 0.4965 and 0.3855
